# “And” between values parts separate entries of the source, which are not always exact repeats. Identical values can stand only once.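 Each compound was tested at five concentrations against cells in 96-well plates for 48 hours. Definition used: TGI = concentration required for complete inhibition of growth.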 Starred links: 1 amine or outer side, 2 acyl side, 3 side chain; linkers in the order of their positions; H or OH if unused. Positions of bridges follow the written chain, without caps; N, C: chain ends. Non-standard residues stand in square brackets, D forms with d. Residues, ends and D or L forms follow the SMILES beside them. Chains are numbered I, II in the order given. Actinocin(1to9) = Cc1c2oc3c(C)ccc(C(=O)[*:2])c3nc-2c(C(=O)[*:1])c(N)c1=O; NMeV = CN[CH](C(=O)O)C(C)C; Sar = CNCC(=O)O
# What was measured:
# Assay in all cases: NCI-60 cell line screen, 48 h
# MOLT-4 leukemia = tested on: MOLT-4 leukemia
# UACC-257 melanoma = tested on: UACC-257 melanoma
# SNB-19 CNS = tested on: SNB-19 CNS
# T-47D breast = tested on: T-47D breast
# EKVX NSCLC = tested on: EKVX NSCLC
# CAKI-1 renal = tested on: CAKI-1 renal
# NCI-H226 lung = tested on: NCI-H226 lung
# HCT-116 colon = tested on: HCT-116 colon
# SF-295 CNS = tested on: SF-295 CNS
# SK-OV-3 ovarian = tested on: SK-OV-3 ovarian
# OVCAR-3 ovarian = tested on: OVCAR-3 ovarian
# HT29 colon = tested on: HT29 colon
# RPMI-8226 leukemia = tested on: RPMI-8226 leukemia
# MDA-MB-231 breast = tested on: MDA-MB-231 breast
# UO-31 renal = tested on: UO-31 renal
# A498 renal = tested on: A498 renal
# ACHN renal = tested on: ACHN renal
Structure (SMILES),TGI (MOLT-4 leukemia),TGI (UACC-257 melanoma),TGI (SNB-19 CNS),TGI (T-47D breast),TGI (EKVX NSCLC),TGI (CAKI-1 renal),TGI (NCI-H226 lung),TGI (HCT-116 colon),TGI (SF-295 CNS),TGI (SK-OV-3 ovarian),TGI (OVCAR-3 ovarian),TGI (HT29 colon),TGI (RPMI-8226 leukemia),TGI (MDA-MB-231 breast),TGI (UO-31 renal),TGI (A498 renal),TGI (ACHN renal)
O=C1C[C@H](c2ccccc2)O[C@@H](c2ccccc2)C1,> 100 µM,> 100 µM,> 100 µM,> 100 µM,> 100 µM,> 100 µM,> 100 µM,> 100 µM,> 100 µM,> 100 µM,> 100 µM,> 100 µM,> 100 µM,> 100 µM,> 100 µM,,
C[C@@H](c1ccccc1)n1c(N)c(-c2ccccn2)c2ccc([N+](=O)[O-])cc2c1=O,,> 100 µM,> 100 µM,> 100 µM,,> 100 µM,> 100 µM,> 100 µM,,,,> 100 µM,,> 100 µM,> 100 µM,65.5 µM,> 100 µM
O=C1NC(N2CCOCC2)=N/C1=C\c1ccc(Cl)cc1,> 100 µM,> 100 µM,> 100 µM,> 100 µM,> 100 µM,> 100 µM,> 100 µM,> 100 µM,> 100 µM,> 100 µM,> 100 µM,> 100 µM,> 100 µM,> 100 µM,> 100 µM,,> 100 µM
Cc1nc(N)c(N2CCN(C(=O)O)CC2)c(=O)[nH]1,> 100 µM,> 100 µM,> 100 µM,> 100 µM,> 100 µM,,> 100 µM,> 100 µM,> 100 µM,,> 100 µM,> 100 µM,> 100 µM,> 100 µM,> 100 µM,> 100 µM,> 100 µM
O=c1c2cc(I)ccc2nc(SCc2nncs2)n1Cc1ccccc1,> 100 µM,> 100 µM,> 100 µM,> 100 µM,48.6 µM,,> 100 µM,> 100 µM,> 100 µM,> 100 µM,> 100 µM,> 100 µM,> 100 µM,76.7 µM,2.6 µM,65.1 µM,> 100 µM
COc1ccc(N=Nc2c(C)c(C#N)c(=S)n(C3OC(CO)C(O)C(O)C3O)c2-c2ccccc2)cc1 (stereo not given),46.5 µM,> 100 µM,> 100 µM,97.3 µM,,73.3 µM,,94 µM,98.5 µM,83.3 µM,55.3 µM,> 100 µM,> 100 µM,> 100 µM,> 100 µM,44.5 µM,> 100 µM
CN(C)CCCc1cccc2[nH]c3c(c12)CN(C)CC3,> 100 µM,> 100 µM,> 100 µM,> 100 µM,> 100 µM,> 100 µM,> 100 µM,> 100 µM,> 100 µM,> 100 µM,> 100 µM,> 100 µM,> 100 µM,> 100 µM,> 100 µM,,> 100 µM
CC1(C)O[C@@H]([C@H](O)CO)[C@H](O)[C@@H](C2SCCCS2)O1,,> 100 µM,> 100 µM,> 100 µM,> 100 µM,> 100 µM,> 100 µM,> 100 µM,> 100 µM,> 100 µM,> 100 µM,> 100 µM,> 100 µM,> 100 µM,> 100 µM,> 100 µM,> 100 µM
CC(C)(C)OC(=O)n1c2ccccc2c2c(=O)nc(N3CCCCC3)sc21,> 100 µM,> 100 µM,> 100 µM,> 100 µM,> 100 µM,> 100 µM,,,> 100 µM,> 100 µM,> 100 µM,> 100 µM,> 100 µM,> 100 µM,44.9 µM,> 100 µM,> 100 µM
O=c1[nH]c(=O)n(COCc2ccccc2)c2ccsc12,> 100 µM,> 100 µM,> 100 µM,> 100 µM,> 100 µM,> 100 µM,> 100 µM,> 100 µM,,,,> 100 µM,> 100 µM,> 100 µM,,> 100 µM,> 100 µM
C[N+]1(CCC(=O)c2ccco2)CC2CCC(CC2)C1 (stereo not given),> 100 µM,> 100 µM,> 100 µM,> 100 µM,> 100 µM,> 100 µM,> 100 µM,> 100 µM,> 100 µM,,> 100 µM,> 100 µM,> 100 µM,> 100 µM,> 100 µM,> 100 µM,> 100 µM
O=C(O[C@@H](/C=C/c1ccccc1)P1(=O)N(Cc2ccccc2)[C@H]2CCCC[C@@H]2N1Cc1ccccc1)c1ccccc1,,9.43 µM,> 100 µM,47.2 µM,> 100 µM,11.5 µM,13.2 µM,> 100 µM,> 100 µM,77.1 µM,33.9 µM,> 100 µM,7.31 µM,6.95 µM,11.7 µM,8.43 µM,6.91 µM
Nc1ccc2c(O)cc(=O)[nH]c2n1,> 100 µM,> 100 µM,> 100 µM,> 100 µM,> 100 µM,> 100 µM,> 100 µM,> 100 µM,> 100 µM,> 100 µM,,> 100 µM,> 100 µM,> 100 µM,> 100 µM,,> 100 µM
CC#CC(O)(C(=O)OCCCN(C)C)C1CCCCC1 (stereo not given),> 100 µM,> 100 µM,> 100 µM,> 100 µM,> 100 µM,,> 100 µM,> 100 µM,> 100 µM,> 100 µM,> 100 µM,> 100 µM,> 100 µM,> 100 µM,> 100 µM,> 100 µM,> 100 µM
CCOC(=O)C(/C(=N/S(=O)(=O)c1cc(C)c(Cl)cc1[S-])[n+]1ccc(N(C)C)cc1)=C(/O)c1ccc([N+](=O)[O-])cc1,> 100 µM,25.3 µM,,> 100 µM,,99.7 µM,> 100 µM,36.7 µM,54.1 µM,68.4 µM,> 100 µM,55.4 µM,63.7 µM,> 100 µM,> 100 µM,60.4 µM,71.6 µM
CC(O)(Cc1ccccc1C#N)Cc1ccccc1C#N,> 100 µM,> 100 µM,> 100 µM,> 100 µM,> 100 µM,> 100 µM,> 100 µM,> 100 µM,> 100 µM,> 100 µM,> 100 µM,> 100 µM,,> 100 µM,,> 100 µM,> 100 µM
Cc1cn([C@@H]2C[C@@H]2CO)c(=O)[nH]c1=O,> 100 µM,> 100 µM,> 100 µM,> 100 µM,> 100 µM,> 100 µM,> 100 µM,> 100 µM,,,,> 100 µM,> 100 µM,> 100 µM,> 100 µM,> 100 µM,> 100 µM
Cc1c(N2C(=O)/C(=C/c3ccc(Cl)cc3)N=C2c2ccccc2)c(=O)n(-c2ccccc2)n1C,> 100 µM,42.8 µM,,> 100 µM,63.4 µM,> 100 µM,96.7 µM,> 100 µM,> 100 µM,> 100 µM,> 100 µM,79.8 µM,42.9 µM,> 100 µM,93.7 µM,,60.5 µM
CCc1ccccc1N=NC(=O)NNc1ccccc1CC,50.1 µM,36.1 µM,95 µM,32.2 µM,,95.2 µM,34.4 µM,29 µM,,,33.2 µM,40.8 µM,77.3 µM,50.1 µM,39.8 µM,36.5 µM,54.6 µM
O=c1cc(N=Nc2ccc(Br)cc2)[nH]c(=S)[nH]1,63.3 µM,67.7 µM,> 100 µM,62.4 µM,39.6 µM,23 µM,> 100 µM,35.6 µM,> 100 µM,> 100 µM,28.9 µM,34.2 µM,57.9 µM,34.3 µM,> 100 µM,,40.8 µM
CC(=O)C1=C(C)N2C(=NC3=C(CCc4ccccc43)C2c2ccc(F)cc2)S1 (stereo not given),6.54 µM,> 100 µM,> 100 µM,> 100 µM,> 100 µM,,> 100 µM,> 100 µM,> 100 µM,> 100 µM,> 100 µM,> 100 µM,85 µM,> 100 µM,> 100 µM,> 100 µM,> 100 µM
COc1cc(NS(C)(=O)=O)ccc1Nc1cc[nH]c2ccc3nccc3c12,,33.2 µM,29.9 µM,33.2 µM,51.3 µM,32.5 µM,36.9 µM,24.7 µM,32.9 µM,,29.4 µM,31.3 µM,31.7 µM,25 µM,> 100 µM,30.7 µM,32.8 µM
"CCC(C)C1NC(=O)C(NC(=O)c2c3nc4c(C(=O)NC5C(=O)NC(C(C)CC)C(=O)N6CCCC6C(=O)N(C)CC(=O)N(C)C(C(C)C)C(=O)OC5C)ccc(C)c4oc-3c(C)c(=O)c2N)C(C)OC(=O)C(C(C)C)N(C)C(=O)CN(C)C(=O)C2CCCN2C1=O (stereo not given) (I: TIP[Sar][NMeV] / II: TIP[Sar][NMeV]; ester I:1-I:C, II:1-II:C; linker I:N-II:N via Actinocin(1to9); configuration not given here)",0.0144 µM,0.00726 µM,0.0111 µM,0.0122 µM,0.248 µM and 0.0692 µM,0.0861 µM,,,,0.578 µM,0.0389 µM,11.5 µM,0.0322 µM,0.156 µM and 0.481 µM,0.143 µM and 0.316 µM,0.0629 µM,
CCOc1cc(C2SCC(=O)N2c2ccc(Oc3ccc(Cl)cc3)c(Cl)c2)ccc1O (stereo not given),64.4 µM,33.3 µM,34.8 µM,40.4 µM,33.4 µM,32.6 µM,31.1 µM,25.1 µM,34.1 µM,37.3 µM,30.6 µM,31.8 µM,80.1 µM,36 µM,21.7 µM,,31.2 µM
c1ccc(-c2nnn3c2NC2=C(CCCC2)C3c2ccccc2)cc1 (stereo not given),24.7 µM,52.2 µM,> 100 µM,49.9 µM,,38.8 µM,> 100 µM,24.3 µM,49.7 µM,50.7 µM,37.7 µM,28.4 µM,31.9 µM,64.6 µM,34.1 µM,,3.09 µM
CC(ON(C(c1ccccc1)C(C)C)C(C)(C)C)c1ccccc1 (stereo not given),35.9 µM,47.1 µM,35.9 µM,81 µM,29 µM,55.7 µM,36.6 µM,33.9 µM,28.5 µM,> 100 µM,30 µM,43.5 µM,73.7 µM,39.3 µM,43.3 µM,,29.3 µM
O=C(CC(=O)N1N=C(N2CCCCC2)CC1c1ccccc1)Nc1ccccc1 (stereo not given),> 100 µM,> 100 µM,> 100 µM,> 100 µM,> 100 µM,> 100 µM,> 100 µM,> 100 µM,> 100 µM,,> 100 µM,> 100 µM,,> 100 µM,> 100 µM,> 100 µM,> 100 µM
COc1ccc(C2N(c3ccc(F)cc3)C(=O)N3C(c4ccc(OC)cc4)N(c4ccc(F)cc4)C(=O)N23)cc1 (stereo not given),,> 100 µM,> 100 µM,> 100 µM,> 100 µM,> 100 µM,,> 100 µM,> 100 µM,,> 100 µM,> 100 µM,> 100 µM,> 100 µM,> 100 µM,> 100 µM,> 100 µM
CC(C)=CCC[C@@H](C)/C=C/C=C(\C)C(=O)CC[C@@H]1CC[N@+]2(C)CCCC[C@H]12,> 100 µM,> 100 µM,> 100 µM,> 100 µM,> 100 µM,> 100 µM,> 100 µM,> 100 µM,> 100 µM,,> 100 µM,,> 100 µM,> 100 µM,> 100 µM,> 100 µM,> 100 µM

# — PubChem BioAssay (NCI)
